The results in this text go back to patent EP0987254B1, “NOVEL CYCLIC DIAMINE COMPOUNDS AND MEDICINE CONTAINING THE SAME” (Kowa Co., Ltd., priority 1997, dated 1998).

Values after ≈ are worked out from the molar mass of the structure shown. Where two headings read alike, the source gives them in different places.

The target of data set [1] is ACAT (small intestine). In words: ACAT inhibitory action, enzyme from small intestine. The class given is biochemical. The settings on record: B = the small intestine of rabbits fed normal feed; 14C-oleoyl-CoA, 37°C, three minutes. As for the experimental part: (§1) Microsome was prepared by a conventional method from stethartery of rabbits fed for eight weeks with a 1% cholesterol feed and was suspended in a 0.15M phosphate buffer (pH 7.4) to provide an enzyme solution. An enzyme solution derived from small intestine was prepared from small intestine or rabbits fed with normal feed. […] The solvent layer was concentrated to dryness, the residue was dissolved in hexane and the solution was spotted on a TLC plate (manufactured by Merck) followed by developing with hexane : ether : acetic acid (75:25:1). Radioactivity of the resulting cholesterol ester fraction was measured by a BAS 2000 (manufactured by Fuji Photo Film) and IC50 values were determined from a comparative calculation with the control to which only DMSO was added.

The target of data set [2] is ACAT (blood vessel wall). In words: ACAT inhibitory action, microsome enzyme from blood vessel wall (stethartery). The class given is biochemical, rabbits. The settings on record: for IC50: A = the blood vessel wall, microsome from stethartery of rabbits fed 1% cholesterol feed, 14C-oleoyl-CoA, 37°C, five minutes; for IC50 (B) /IC50 (A): ratio small intestine / blood vessel wall. The method, then: as §1

Data set [3] has as its system J774 cells. The experiment in a line: ACAT inhibitory action (anti-foaming action) in J774 cells. The note with it: for IC50 (HepG2) /IC50 (J774): ratio HepG2 / J774, 1080 min.
Experimental: (§2) The medium was removed and, after washing with PBS twice, extraction was conducted with 1.5 ml of hexane : isopropanol (3:2) followed by concentrating to dryness. The extract was dissolved in 0.2 ml of isopropanol containing 10% of 10% Triton X-100 and total cholesterol (TC) and free cholesterol (FC) were determined by a Cholesterol E Test Wako (Wako Pure Chemicals) and a Free Cholesterol E Test Wako (Wako Pure Chemicals), respectively. Residue of the cells after extraction was solubilized with 0.25 ml of 2N NaOH at 30°C for 30 minutes and amount of protein was determined by means of a BCA Protein Assay Reagent (Pierce). From the difference between TC and FC, amount of cholesterol ester per protein was calculated and then IC50 was determined by means of a comparative calculation with the control.
The test system of data set [4] is HepG2 cells. The experiment in a line: ACAT inhibitory action (anti-foaming action) in HepG2 cells.
Experimental: as §2
Data set [5] in a line: Disintegration test: solubility in liquid No.1 for disintegration test of the Japanese Pharmacopoeia. In kind it is physicochemical. The settings on record: jp disintegration liquid no.1; pH 1.2; liquid No.1, shaken two hours, room temperature one hour, 0.45 µm filter. The method, then: Absorbance of a mixture of this filtrate with methanol in the same amounts was measured and, from the previously-determined ε1% 1cm values, solubility was calculated.

Where [6] appears, read: Mus musculus, J774, 18 h, read-out: Enzyme (J774) IC50(µM).
Setting [7] is: Homo sapiens, HepG2, 18 h, read-out: Enzyme (HepG2) IC50(µM).

By IC50 is commonly meant the midpoint of a concentration-inhibition curve. In general, solubility refers to the concentration that dissolves in the medium under given conditions.

For the compound `CC(C)c1cccc(C(C)C)c1NC(=O)C(C)(C)CCCOc1ccc2c(c1)C=C(c1nccn1C)C(CCc1ccc(F)cc1)O2` (stereo not shown) [Control 1, 5-[2-(2-(4-Fluorophenyl)ethyl)-3-(1-methyl-1H-imidazol-2-yl)-2H-1-benzopyran-6-yl]oxy-2,2-dimethyl-N-(2,6-diisopropylphenyl) -pentanamide, reference compound], the results for the IC50 in data set [1], in data set [2] and in data set [3] (setting [6]) were 870 nM, 450 nM and 0.56 µM, respectively. In data set [2], the “IC50 (B) /IC50 (A)” value stood at 1.9. Further, the “IC50 (HepG2) /IC50 (J774)” value in data set [3] is 9.5.

For the compound `CCCCCCCCCN(CC(C)(C)C)C(=O)N[C@H]1CCCC[C@@H]1OC(=O)CCNC(=O)C1OC(C)(C)OCC1(C)C` (stereo partly shown) [Control 3, reference compound], the IC50 in data set [1] turned out to be 56 nM; in data set [2] it was 34 nM.

`CCCCCCCN(CCCCCSc1nc(-c2ccccc2)c(-c2ccccc2)[nH]1)c1nc2ccccc2o1` [Control 4, reference compound]: the IC50 came to 37 nM in data set [1]; 26 nM in data set [2]; 0.12 µM in data set [3] (read-out: Enzyme (J774) IC50, J774 cells, 10 µg/ml 25-OH cholesterol, 18 hours, cholesterol ester per protein); 0.75 µM in data set [4] (read-out: Enzyme (HepG2) IC50, HepG2 cells, 10 µg/ml 25-OH cholesterol, 18 hours, cholesterol ester per protein). The “IC50 (B) /IC50 (A)” value in data set [2] is reported as 1.4. In data set [3], the “IC50 (HepG2) /IC50 (J774)” value is 6.3.

`CCCC(CCCCC(=O)Nc1c(C(C)C)cccc1C(C)C)Sc1nc2ccccc2o1` (stereo not shown) [Control 5, 6-(Benzoxazol-2-ylthio)-N-(2,6-diisopropylphenyl)nonanamide] had a solubility in data set [5] of 0.05 µg/mL (≈ 0.107 µM).

For the compound `COC(=O)c1cccc2oc(SCCN3CCN(CC(=O)Nc4c(C(C)C)cccc4C(C)C)CC3)nc12` [Example 5, 2-[4-[2-(4-methoxycarbonylbenzoxazol-2-ylthio)ethyl]-piperazin-1-yl]-N-(2,6-diisopropylphenyl) acetamide], the IC50 in data set [1] is 130 nM; in data set [2], 56 nM. Besides, the “IC50 (B) /IC50 (A)” value in data set [2] is given as 2.3. Also, the “IC50 (HepG2) /IC50 (J774)” value in data set [3] amounted to 14.5.

As for `COC(=O)c1cccc2nc(SCCCN3CCN(CC(=O)Nc4c(C(C)C)cccc4C(C)C)CC3)oc12` [Example 10, 2-[4-[3-(7-methoxycarbonylbenzoxazol - 2-ylthio)propyl]piperazin-1-yl]-N-(2,6-diisopropylphenyl) acetamide], in data set [1], the IC50 was determined as 39 nM. Moreover, in data set [2], the IC50 was 35 nM and the “IC50 (B) /IC50 (A)” value is reported as 1.1. Also, in data set [3], the “IC50 (HepG2) /IC50 (J774)” value came to 18.2.

Take `COc1cc(C(C)C)c(NC(=O)CN2CCN(CCSc3nc4ccccc4o3)CC2)c(C(C)C)c1` [Example 75, 2-[4-[2-(benzoxazol-2-ylthio)ethyl]-piperazin-1-yl]-N-(2,6-diisopropyl-4-methoxyphenyl)-acetamide]: the IC50 was 210 nM in data set [1], 38 nM in data set [2], 0.1 µM in data set [3] (setting [6]) and more than 10 µM in data set [4] (setting [7]). In addition, in data set [2], the “IC50 (B) /IC50 (A)” value came to 5.5. Also, in data set [3], the “IC50 (HepG2) /IC50 (J774)” value was more than 100.

`CCOCCOc1cc(C(C)C)c(NC(=O)CN2CCN(CCSc3nc4ccccc4o3)CC2)c(C(C)C)c1` [Example 78, 2-[4-[2-(benzoxazol-2-ylthio)ethyl]piperazin-1-yl]-N-[2,6-diisopropyl-4-(2-ethoxyethyl)oxyphenyl)acetamide]: the IC50 was 210 nM in data set [1], 40 nM in data set [2], 0.014 µM in data set [3] (setting [6]) and 0.82 µM in data set [4] (setting [7]). In addition, in data set [2], the “IC50 (B) /IC50 (A)” value is reported as 5.3. Besides, in data set [3], the “IC50 (HepG2) /IC50 (J774)” value is recorded as 58.6.

Turning to `CC(C)c1cccc(C(C)C)c1NC(=O)CN1CCN(CCSc2nc3cccc(C(F)(F)F)c3o2)CC1` [Example 85, 2-[4-[2-(7-trifluoromethylbenzoxazol-2-ylthio)ethyl]piperazin-1-yl]-N-(2,6-diisopropylphenyl)acetamide], the IC50 was 59 nM in data set [1], 12 nM in data set [2], 0.019 µM in data set [3] (setting [6]) and more than 1 µM in data set [4] (setting [7]). In data set [2], the “IC50 (B) /IC50 (A)” value worked out at 4.9. The “IC50 (HepG2) /IC50 (J774)” value in data set [3] is reported as more than 53.
